Reference: ChEMBL document CHEMBL6109046, “Recent advances in developing targeted protein degraders” (Eur J Med Chem, 2025)
Blank lines part the entries; values can stand above or below the compound they belong to.

Key:
[1] = biological target: T1, Protein cereblon/Androgen receptor (Homo sapiens, UniProt P10275+Q96SW2); test: PROTAC activity at AR/CRBN in human LNCaP cells assessed as protein degradation incubated for 24 hrs by Western blot analysis; format: cell-based
[2] = PROTAC activity at SMARCA2/VHL in human MV4-11 cells assessed as protein degradation incubated for 18 hrs by Western blot analysis; format: cell-based; details: MV4-11, 18 h
[3] = PROTAC activity at VHL/BRD4 in human HeLa cells assessed as degradation of BRD4 incubated for 16 hrs by Western blot analysis; format: cell-based
[4] = biological target: von Hippel-Lindau disease tumor suppressor/Bromodomain-containing protein 9 (Homo sapiens, UniProt Q9H8M2+P40337); test: PROTAC activity at VHL/BRD9 in human HeLa cells assessed as protein degradation by Western blot analysis; format: cell-based
[5] = biological target: T1, Protein cereblon/Androgen receptor; test: PROTAC activity at CRBN/AR in human VCaP cells assessed as induction of AR degradation incubated for 24 hrs by Western blot analysis; format: cell-based
[6] = biological target: Protein cereblon/Cyclin-dependent kinase 9 (Homo sapiens, UniProt P50750+Q96SW2); test: PROTAC activity at CRBN/CDK9 in human MV4-11 cells assessed as induction of CDK9 degradation measured for 3 days by Western blot analysis; format: cell-based
[7] = biological target: von Hippel-Lindau disease tumor suppressor/Tyrosine-protein kinase BTK; test: PROTAC activity at VHL/BTK in human THP-1 cells assessed as induction of BTK degradation incubated for 24 hrs by immunoblotting analysis
[8] = biological target: Protein cereblon/Poly [ADP-ribose] polymerase 1 (Homo sapiens, UniProt P09874+Q96SW2); test: PROTAC activity at CRBN/PARP1 in human MDA-MB-231 cells assessed as degradation of PARP1 measured after 24 hrs by Western blot analysis; format: cell-based
[9] = PROTAC activity at human VHL/BRD4 in human MV4-11 cells assessed as degradation of BRD4 incubated for 16 hrs by Western blot analysis; format: cell-based; details: MV4-11, 16 h
[10] = biological target: von Hippel-Lindau disease tumor suppressor/Bromodomain-containing protein 4 (Homo sapiens, UniProt O60885+P40337); test: PROTAC activity at human VHL/BRD4 in human HeLa cells assessed as degradation of BRD4 incubated for 24 hrs by Western blot analysis; format: cell-based
[11] = Downregulation of induced PCSK9 expression in HEK293 cells by Western blot analysis; format: functional, cell-based; details: Homo sapiens
[12] = biological target: Proprotein convertase subtilisin/kexin type 9 (Homo sapiens, UniProt Q8NBP7); test: Binding affinity to PCSK9 (unknown origin) assessed as inhibition constant
Chain of Proprotein convertase subtilisin/kexin type 9 (Q8NBP7 31-152 limits assumed): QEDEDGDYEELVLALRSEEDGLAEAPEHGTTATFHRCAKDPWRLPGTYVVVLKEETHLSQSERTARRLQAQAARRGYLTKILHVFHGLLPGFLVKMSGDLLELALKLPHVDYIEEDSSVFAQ
Chain of Proprotein convertase subtilisin/kexin type 9 (Q8NBP7 153-692 limits assumed): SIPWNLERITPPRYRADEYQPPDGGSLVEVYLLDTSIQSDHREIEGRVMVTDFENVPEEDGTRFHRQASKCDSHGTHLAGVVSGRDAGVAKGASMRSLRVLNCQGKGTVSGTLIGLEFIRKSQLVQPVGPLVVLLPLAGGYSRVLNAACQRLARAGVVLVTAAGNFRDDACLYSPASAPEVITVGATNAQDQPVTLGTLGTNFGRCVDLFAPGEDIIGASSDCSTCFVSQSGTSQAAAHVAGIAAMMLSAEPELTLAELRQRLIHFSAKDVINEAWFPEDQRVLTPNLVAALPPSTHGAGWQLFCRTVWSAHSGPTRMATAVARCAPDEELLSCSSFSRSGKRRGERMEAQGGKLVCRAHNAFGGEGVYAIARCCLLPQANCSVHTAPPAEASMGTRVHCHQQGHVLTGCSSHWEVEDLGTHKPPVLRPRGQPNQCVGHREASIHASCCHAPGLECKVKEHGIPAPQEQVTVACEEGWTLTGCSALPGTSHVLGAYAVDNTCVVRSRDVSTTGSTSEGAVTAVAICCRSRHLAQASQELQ

Chain of Protein cereblon/Cyclin-dependent kinase 9 (P50750 whole entry): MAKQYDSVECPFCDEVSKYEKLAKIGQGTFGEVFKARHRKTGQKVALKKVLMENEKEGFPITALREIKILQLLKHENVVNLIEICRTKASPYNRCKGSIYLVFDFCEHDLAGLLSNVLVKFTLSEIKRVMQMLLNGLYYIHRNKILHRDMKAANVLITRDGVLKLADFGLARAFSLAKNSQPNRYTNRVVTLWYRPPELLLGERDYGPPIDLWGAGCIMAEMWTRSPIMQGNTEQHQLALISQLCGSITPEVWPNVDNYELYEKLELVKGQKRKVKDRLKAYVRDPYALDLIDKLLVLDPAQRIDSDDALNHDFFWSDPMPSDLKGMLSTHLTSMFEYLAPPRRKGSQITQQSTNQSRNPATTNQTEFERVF
Chain of Protein cereblon/Cyclin-dependent kinase 9 (Q96SW2 whole entry): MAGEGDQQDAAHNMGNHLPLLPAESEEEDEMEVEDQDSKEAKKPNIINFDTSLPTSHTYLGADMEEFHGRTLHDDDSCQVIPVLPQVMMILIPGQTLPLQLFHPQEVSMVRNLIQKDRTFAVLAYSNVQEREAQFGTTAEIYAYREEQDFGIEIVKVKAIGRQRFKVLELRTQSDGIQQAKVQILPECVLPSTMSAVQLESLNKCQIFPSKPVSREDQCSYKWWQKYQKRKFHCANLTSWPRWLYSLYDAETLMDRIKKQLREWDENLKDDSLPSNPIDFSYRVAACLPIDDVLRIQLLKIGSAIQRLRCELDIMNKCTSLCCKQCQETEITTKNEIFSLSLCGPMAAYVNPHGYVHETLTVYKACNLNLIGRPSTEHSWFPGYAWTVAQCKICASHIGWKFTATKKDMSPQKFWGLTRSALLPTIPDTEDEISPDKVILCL
T1 sequence (P10275 whole entry): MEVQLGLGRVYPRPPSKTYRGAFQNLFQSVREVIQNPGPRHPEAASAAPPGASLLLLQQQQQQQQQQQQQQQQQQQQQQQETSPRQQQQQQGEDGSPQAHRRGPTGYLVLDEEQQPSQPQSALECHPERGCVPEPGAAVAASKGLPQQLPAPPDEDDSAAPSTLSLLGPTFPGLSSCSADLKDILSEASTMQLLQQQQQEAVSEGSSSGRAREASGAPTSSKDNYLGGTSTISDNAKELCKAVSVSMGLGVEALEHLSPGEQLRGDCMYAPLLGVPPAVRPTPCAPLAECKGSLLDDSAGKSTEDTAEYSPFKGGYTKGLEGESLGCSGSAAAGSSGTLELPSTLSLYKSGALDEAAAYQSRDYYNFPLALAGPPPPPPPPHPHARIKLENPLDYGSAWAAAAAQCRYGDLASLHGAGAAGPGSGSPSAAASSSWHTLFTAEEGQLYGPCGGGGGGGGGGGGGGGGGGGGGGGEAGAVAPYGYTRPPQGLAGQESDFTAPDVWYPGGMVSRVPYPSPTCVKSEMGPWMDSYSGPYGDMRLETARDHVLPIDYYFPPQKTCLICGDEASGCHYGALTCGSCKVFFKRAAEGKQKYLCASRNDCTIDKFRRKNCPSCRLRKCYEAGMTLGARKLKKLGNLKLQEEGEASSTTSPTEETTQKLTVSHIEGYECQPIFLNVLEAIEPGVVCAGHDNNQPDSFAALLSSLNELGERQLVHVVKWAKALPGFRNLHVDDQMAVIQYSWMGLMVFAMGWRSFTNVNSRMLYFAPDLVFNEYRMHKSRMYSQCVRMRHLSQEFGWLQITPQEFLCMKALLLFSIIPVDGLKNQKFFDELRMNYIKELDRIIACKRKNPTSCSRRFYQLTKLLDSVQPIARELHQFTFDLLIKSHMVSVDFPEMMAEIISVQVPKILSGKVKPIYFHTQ
T1 sequence (Q96SW2 whole entry): as the sequence (Q96SW2 whole entry) above
Chain of Protein cereblon/Poly [ADP-ribose] polymerase 1 (P09874 whole entry): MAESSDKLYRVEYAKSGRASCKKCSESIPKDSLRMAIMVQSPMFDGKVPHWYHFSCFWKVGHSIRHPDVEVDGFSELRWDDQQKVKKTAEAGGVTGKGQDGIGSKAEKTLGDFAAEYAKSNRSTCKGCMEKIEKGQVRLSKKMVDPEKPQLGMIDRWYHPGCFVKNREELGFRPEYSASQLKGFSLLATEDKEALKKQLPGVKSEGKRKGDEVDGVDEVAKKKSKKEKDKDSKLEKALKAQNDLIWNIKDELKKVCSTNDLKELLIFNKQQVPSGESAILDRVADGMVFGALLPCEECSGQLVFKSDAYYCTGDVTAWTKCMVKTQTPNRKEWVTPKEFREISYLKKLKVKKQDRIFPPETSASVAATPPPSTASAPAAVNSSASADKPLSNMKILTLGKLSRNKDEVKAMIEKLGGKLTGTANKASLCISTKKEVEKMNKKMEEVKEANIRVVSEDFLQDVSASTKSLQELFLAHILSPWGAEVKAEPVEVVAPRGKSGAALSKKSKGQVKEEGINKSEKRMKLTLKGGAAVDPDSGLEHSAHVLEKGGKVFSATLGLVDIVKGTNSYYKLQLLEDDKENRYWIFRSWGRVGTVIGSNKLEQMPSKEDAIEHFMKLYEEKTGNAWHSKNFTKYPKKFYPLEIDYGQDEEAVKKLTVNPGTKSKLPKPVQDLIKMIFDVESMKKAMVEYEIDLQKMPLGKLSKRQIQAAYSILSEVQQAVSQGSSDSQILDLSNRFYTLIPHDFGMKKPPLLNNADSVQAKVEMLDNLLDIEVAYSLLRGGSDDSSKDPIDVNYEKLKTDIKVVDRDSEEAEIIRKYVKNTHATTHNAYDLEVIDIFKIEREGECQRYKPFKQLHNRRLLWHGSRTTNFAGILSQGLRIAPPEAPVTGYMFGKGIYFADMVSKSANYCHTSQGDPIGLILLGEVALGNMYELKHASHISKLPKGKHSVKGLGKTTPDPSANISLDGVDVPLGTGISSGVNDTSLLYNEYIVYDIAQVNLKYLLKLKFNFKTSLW
Chain of Protein cereblon/Poly [ADP-ribose] polymerase 1 (Q96SW2 whole entry): as the sequence (Q96SW2 whole entry) above
Chain of von Hippel-Lindau disease tumor suppressor/Bromodomain-containing protein 9 (Q9H8M2 whole entry): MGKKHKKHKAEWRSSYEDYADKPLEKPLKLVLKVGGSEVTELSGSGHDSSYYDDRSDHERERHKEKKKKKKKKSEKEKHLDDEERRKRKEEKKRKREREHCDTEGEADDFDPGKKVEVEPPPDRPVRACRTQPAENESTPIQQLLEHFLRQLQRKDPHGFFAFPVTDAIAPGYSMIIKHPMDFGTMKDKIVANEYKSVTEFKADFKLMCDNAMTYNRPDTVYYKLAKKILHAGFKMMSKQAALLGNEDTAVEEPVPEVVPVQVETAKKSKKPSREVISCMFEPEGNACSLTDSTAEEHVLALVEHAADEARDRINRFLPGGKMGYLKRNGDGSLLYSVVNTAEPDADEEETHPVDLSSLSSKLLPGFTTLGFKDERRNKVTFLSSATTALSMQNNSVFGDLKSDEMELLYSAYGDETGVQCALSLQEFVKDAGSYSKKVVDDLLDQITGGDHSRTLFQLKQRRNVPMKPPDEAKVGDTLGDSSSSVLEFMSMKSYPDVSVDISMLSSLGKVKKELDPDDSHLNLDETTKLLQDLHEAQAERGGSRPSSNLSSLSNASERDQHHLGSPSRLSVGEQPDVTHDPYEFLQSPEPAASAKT
Chain of von Hippel-Lindau disease tumor suppressor/Bromodomain-containing protein 9 (P40337 whole entry): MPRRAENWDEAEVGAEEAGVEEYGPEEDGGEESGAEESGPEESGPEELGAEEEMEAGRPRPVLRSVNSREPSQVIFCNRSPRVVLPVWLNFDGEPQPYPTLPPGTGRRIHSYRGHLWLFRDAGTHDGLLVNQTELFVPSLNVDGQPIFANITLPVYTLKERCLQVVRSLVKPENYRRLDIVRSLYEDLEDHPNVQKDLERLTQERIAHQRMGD
Chain of von Hippel-Lindau disease tumor suppressor/Bromodomain-containing protein 4 (P40337 whole entry, looked up, other chains not shown): as the sequence (P40337 whole entry) above

Compound: Cc1sc2c(c1C)C(c1ccc(Cl)cc1)=N[C@@H](CC(=O)NCCCCOc1ccc(Oc3ccc(N(Cc4ccccc4)C(=O)CCl)cc3)cc1)c1nnc(C)n1-2
DC50 [3]: < 10000 nM

Compound: COc1cc(-c2cn(C)c(=O)c3cnccc23)c(OC)cc1CN1CCC(OCCCCCC(=O)N2CCN(c3ccc4c(NCCN)nc(C5(c6ccc(Cl)cc6)CCCCC5)nc4c3)CC2)CC1
DC50 [4]: 90 nM

Compound: COc1cc(O[C@H]2C(C)(C)[C@H](NC(=O)c3ccc(N4CCC(CN5CCN(c6ccc(C(=O)N[C@H]7CCC(=O)NC7=O)c(F)c6)CC5)CC4)cc3)C2(C)C)ccc1C#N [LUXDEGALUTAMIDE]
DC50 [5]: < 1 nM

Compound: Cc1sc2c(c1C)C(c1ccc(Cl)cc1)=N[C@@H](CC(=O)NCCCCCCCCCCNC(=O)[C@@]13CCC(C)(C)C[C@@H]1[C@@H]1C(=O)C=C4[C@]5(C)C=C(C#N)C(=O)C(C)(C)[C@H]5CC[C@]4(C)[C@@]1(C)CC3)c1nnc(C)n1-2
DC50 [6]: < 200 nM

Compound: COc1cc(/C=C/C(=O)N2CCC=CC2=O)cc(OC)c1OCCN1CCN(C(=O)CN2CCC(C(=O)Nc3ncc(SCc4ncc(C(C)(C)C)o4)s3)CC2)CC1
DC50 [6]: 9 nM

Compound: COC(=O)C[C@H]1[C@]2(C)C3=C(C)[C@H](c4ccoc4-c4ccc(C(=O)NCCCNC(=O)C[C@@H]5N=C(c6ccc(Cl)cc6)c6c(sc(C)c6C)-n6c(C)nnc65)cc4)C[C@H]3O[C@@H]2[C@@H]2OC(=O)[C@]3(C)C=CC(=O)[C@@]1(C)[C@@H]23
DC50 [3]: 36000 nM

Compound: Cc1sc2c(c1C)C(c1ccc(Cl)cc1)=N[C@H](CC(=O)NCCCn1cc(CNC(=O)c3ccc(S(=O)(=O)N(CC#N)C(=O)CC45CC6CC(CC(C6)C4)C5)cc3)nn1)c1nnc(C)n1-2
DC50 [9]: 3000 nM

Compound: Cc1ncsc1-c1ccc([C@H](C)NC(=O)[C@@H]2C[C@@H](O)CN2C(=O)[C@H](c2cc(N3CCC(CN4CCC(OC5CC(Oc6cc(N7[C@H]8CC[C@H]7CN(c7cc(-c9ccccc9O)nnc7N)C8)ccn6)C5)CC4)CC3)no2)C(C)C)cc1 (some centres undefined)
DC50 [2]: 0.03 nM

The remaining lines, values ahead:

DC50 [1]: < 10000 nM
Compound: CC1(C)[C@H](NC(=O)c2ccc(OCC(=O)NCCCOCCOCCOCCCN(C(=O)CCl)C(C(=O)NCc3ccccc3)c3ccc(Cl)c(Cl)c3)cc2)C(C)(C)[C@H]1Oc1ccc(C#N)c(Cl)c1 (some centres undefined)

DC50 [2]: 1 nM
Compound: Cc1ncsc1-c1ccc([C@H](CC[C@H](C)CCN2CCC(c3ccc4c(c3)n(C3CCCC3)c3nc(=O)c5c(Br)cccc5n43)CC2)NC(=O)[C@@H]2C[C@@H](O)CN2C(=O)[C@@H](NC(=O)C2(F)CC2)C(C)(C)C)cc1

DC50 [2]: 6 nM
Compound: Cc1ncsc1-c1ccc(CNC(=O)[C@@H]2C[C@@H](O)CN2C(=O)[C@@H](NC(=O)C2(F)CC2)C(C)(C)C)c(OCCOc2ccc(CN3CCN(c4cc(-c5ccccc5O)nnc4N)CC3)cc2)c1

DC50 [6]: < 500 nM
Compound: CCOC(=O)C[C@@H](c1ccc(C)c(CN2C[C@@H](C)Oc3ccccc3S2(=O)=O)c1)c1cc(OCCNC(=O)CNC(=O)C[C@@H]2N=C(c3ccc(Cl)cc3)c3c(sc(C)c3C)-n3c(C)nnc32)c2c(c1)nnn2C

DC50 [7]: 182 nM
Compound: CN[C@@H](C)C(=O)N[C@H](C(=O)N1Cc2cc(OCCOCCOCCOCCOCCOC(=O)N3CCC[C@H](n4nc(-c5ccc(Oc6ccc(F)cc6F)cc5)c(C(N)=O)c4N)C3)ccc2C[C@@H]1C(=O)NC1CCCc2ccccc21)C(C)(C)C (some centres undefined)

DC50 [8]: < 10000 nM
Compound: COc1ccc(C2=N[C@H](c3ccc(Cl)cc3)[C@H](c3ccc(Cl)cc3)N2C(=O)N2CCN(CC(=O)NCCOCCOCCOCCOCCn3cc(-c4ccc(-n5cc6cccc(C(N)=O)c6n5)cc4)nn3)C(=O)C2)c(OC(C)C)c1

DC50 [9]: 900 nM
Compound: Cc1sc2c(c1C)C(c1ccc(Cl)cc1)=N[C@@H](CC(=O)NCCCOCCOCCOCCCNC(=O)COc1c(Br)cc(/C=C3\C(=O)Nc4ccc(I)cc43)cc1Br)c1nnc(C)n1-2 (stereo in doubt)

DC50 [3]: < 10000 nM
Compound: Cc1sc2c(c1C)C(c1ccc(Cl)cc1)=N[C@@H](CC(=O)NCCCCOc1ccc(C3CC(c4ccc(Br)cc4)=NN3C(=O)CCl)cc1)c1nnc(C)n1-2 (some centres undefined)

DC50 [10]: 10800 nM
Compound: Cc1sc2c(c1C)C(c1ccc(Cl)cc1)=NC(CC(=O)NCCOCCOCCNC(=O)c1cccc(S(=O)(=O)Nc3ccc(C)c4c(C#N)c[nH]c34)c1)c1nnc(C)n1-2 (centres undefined)

IC50 [11]: 3400 nM
Ki [12]: 107 nM
Compound: CC(C)(C)OC(=O)N=C(NCCC[C@H](NC(=O)OC(C)(C)C)C(=O)NCCOCCOc1cc2c(cc1Oc1ccc(-c3ccc(C(=O)O)cc3)c(F)c1)[C@@](C)(CC(=O)Nc1nccs1)NCC2)NC(=O)OC(C)(C)C
